Assay results: PMC10439230 (Scientific Reports, 2023)

Key:
[1] = test system: phospho-ERK (T202/Y204); experiment: Western blot analysis of ERK phosphorylation; assay type: cell-based, human; conditions: MDA-MB-231 cells, 25–50 µM, 24 h
Procedure: (§1) We further investigated targets of compound 4l on cell survival signaling pathways including EGFR, FAK, Akt, and ERK in MDA-MB-231 cells. After treatment with 4l at concentrations of 25–50 µM for 24 h, activation (phosphorylation) of the signaling pathways was determined by using western blot analysis.
(§2) MDA-MB-231 cells in 6-well culture plates (1 × 10^6 cells/well) were treated with tested compounds for 24 h. Then the cells were harvested and western blot analysis was used to detect alteration of targeted proteins in the treated cells, as previously described. Briefly, the cells in 6-well culture plates were scraped in RIPA cell lysis buffer supplemented with protease/phosphatase inhibitor cocktail before being lysed by sonication. Cell lysates were centrifuged at 12,000×g for 5 min, at 4 °C, to remove cell debris. Total proteins (20 μg) in the cell lysates were separated by SDS-PAGE and blotted to PVDF membranes. The membranes were blocked with 3% (w/v) BSA and incubated overnight at 4 °C with primary antibodies specific to the following proteins: EGFR, phospho-EGFR (Y845), FAK, phospho-FAK (Y397), Akt, phospho-Akt (S473), ERK, and phospho-ERK (T202/Y204). […] Bands of specific proteins were detected by using SuperSignal™ ECL substrates and visualized on X-ray films.

[2] = test system: MOLT-3 (T cell acute lymphoblastic leukemia); experiment: Cytotoxic activity assay (XTT); assay type: cell-based, human; conditions: for IC50: Homo sapiens, MOLT-3, 48 h exposure, XTT, read-out: Cell lines, IC50 (μM) MOLT-3; for Selectivity Index (SI) values MOLT-3: SI = IC50 normal cell (MRC-5)/ IC50 cancer cell
[3] = test system: HL-60 (acute promyelocytic leukemia); experiment: Cytotoxic activity assay (XTT); assay type: cell-based, human; conditions: for IC50: Homo sapiens, HL-60, 48 h exposure, XTT, read-out: Cell lines, IC50 (μM) HL-60; for Selectivity Index (SI) values HL-60: SI = IC50 normal cell (MRC-5)/ IC50 cancer cell
Outline: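 HL-60 human acute promyelocytic leukemia cells, handled as suspension cells, were plated in 96-well plates at 75 µL and 5000–20,000 cells per well. They were kept for 30 min at 37 °C in 95% humidity and 5% CO2. An equal volume of medium carrying test compound was then added for 48 h. Viability was measured by XTT: 75 µL reagent per well, 4 h incubation, and orange formazan absorbance read at 492 nm against a 690 nm reference.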

[4] = test system: MDA-MB-231 cells; experiment: Cell morphology of treated cells (microscopy); assay type: cell-based, human; conditions: MDA-MB-231, 25–50 µM
Procedure: (§3) Mode of cell death induced by compound 4l was explored using MDA-MB-231 cells by observing change in cell morphology and flow cytometric analysis of annexin V/7-AAD double stained cells. […] Accidental cell death necrosis is typically indicated by the immediate production of bubbles on the cell surface after treatment. […] Additionally, vacuole accumulation was not observed in the treated cells until 48 h after treatment (Fig. 3a). Taken together, we hypothesized that 4l-induced cell death in MDA-MB-231 cells was not processed through necrosis or vacuole-presenting regulated cell death such as autophagy.

[5] = test system: MRC-5 normal embryonic lung fibroblast cell line; experiment: Cytotoxic activity assay (MTT), normal cells; assay type: cell-based; conditions: Homo sapiens, MRC5, 48 h exposure, read-out: Cell lines, IC50 (μM) MRC-5
Outline: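 Viability after 48 h compound treatment is determined by MTT reduction, with dissolved purple formazan read at 550 nm against a 650 nm reference. Adherent cells are seeded at 5000–20,000 per well and grown 24 h at 37 °C beforehand.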

[6] = test system: phospho-FAK (Y397); experiment: Western blot analysis of FAK phosphorylation; assay type: cell-based, human; conditions: MDA-MB-231 cells, 24 h
Procedure: as §1, §2

[7] = test system: phospho-EGFR (Y845); experiment: Western blot analysis of EGFR phosphorylation; assay type: cell-based, human; conditions: MDA-MB-231 cells, 25–50 µM, 24 h
Procedure: as §1, §2

[8] = test system: A549 (lung adenocarcinoma); experiment: Cytotoxic activity assay (MTT); assay type: cell-based, human; conditions: for IC50: Homo sapiens, A549, 48 h exposure, MTT, read-out: Cell lines, IC50 (μM) A549; for Selectivity Index (SI) values A549: SI = IC50 normal cell (MRC-5)/ IC50 cancer cell
Outline: (§4)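 48 h continuous compound exposure in adherent cancer cell lines, seeded 5000–20,000 cells/well; endpoint by MTT colorimetry at 550 nm.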

[9] = test system: H69AR (multidrug-resistant small cell lung carcinoma); experiment: Cytotoxic activity assay (MTT); assay type: cell-based, human; conditions: for IC50: Homo sapiens, H69AR, 48 h exposure, MTT, read-out: Cell lines, IC50 (μM) H69AR; for Selectivity Index (SI) values H69AR: SI = IC50 normal cell (MRC-5)/ IC50 cancer cell
Outline: as §4

[10] = test system: MDA-MB-231 (triple-negative breast cancer); experiment: Cytotoxic activity assay (MTT); assay type: cell-based, human; conditions: for IC50: Homo sapiens, MDA-MB-231, 48 h exposure, MTT, read-out: Cell lines, IC50 (μM) MDA-MB-231; for Selectivity Index (SI) values MDA-MB-231: SI = IC50 normal cell (MRC-5)/ IC50 cancer cell
Outline: as §4

[11] = test system: HepG2 (hepatocellular carcinoma); experiment: Cytotoxic activity assay (MTT); assay type: cell-based, human; conditions: for IC50: Homo sapiens, HepG2, 48 h exposure, MTT, read-out: Cell lines, IC50 (μM) HepG2; for Selectivity Index (SI) values HepG2: SI = IC50 normal cell (MRC-5)/ IC50 cancer cell
Outline: as §4

[12] = test system: HeLa (cervical carcinoma); experiment: Cytotoxic activity assay (MTT); assay type: cell-based, human; conditions: for IC50: Homo sapiens, 48 h exposure, MTT, read-out: Cell lines, IC50 (μM) HeLa; for Selectivity Index (SI) values HeLa: SI = IC50 normal cell (MRC-5)/ IC50 cancer cell
Outline: as §4

[13] = test system: HuCCA-1 (cholangiocarcinoma derived from a patient); experiment: Cytotoxic activity assay (MTT); assay type: cell-based, human; conditions: for IC50: Homo sapiens, HuCC-A1, 48 h exposure, MTT, read-out: Cell lines, IC50 (μM) HuCCA-1; for Selectivity Index (SI) values HuCCA-1: SI = IC50 normal cell (MRC-5)/ IC50 cancer cell
Outline: as §4

[14] = test system: T-47D (hormone-dependent breast cancer); experiment: Cytotoxic activity assay (MTT); assay type: cell-based, human; conditions: for IC50: Homo sapiens, T47D, 48 h exposure, MTT, read-out: Cell lines, IC50 (μM) T47-D; for Selectivity Index (SI) values T47-D: SI = IC50 normal cell (MRC-5)/ IC50 cancer cell
Outline: as §4

[15] = test system: MDA-MB-231 cells; experiment: Cell death analysis, annexin V/7-AAD double staining, flow cytometry; assay type: cell-based, human; conditions: for mode of cell death: MDA-MB-231 cells, 24–48 h treatment
Procedure: as §3
Briefly, MDA-MB-231 cells were seeded into 6-well culture plates at 1 × 10^6 cells/well and left in a CO2 incubator for 24 h. Subsequently, the cells were treated with tested compounds for 24–48 h. DMSO was used as a vehicle and its final concentration was kept at 0.2% (v/v) throughout the study. The treated cells were harvested by trypsinization and subjected to annexin V/7-AAD double staining using Muse® Annexin V & Dead Cell Kit as previously described. The stained cells were analyzed by flow cytometric technique using Muse® Cell Analyzer. Population of annexin V-positive cells was defined as early apoptotic cells, and the population positive for both annexin V and 7-AAD was defined as late apoptotic cells. The sequential events of increasing early and late apoptotic cell populations over time is a characteristic of apoptotic cell death.

[16] = test system: phospho-Akt (S473); experiment: Western blot analysis of Akt phosphorylation; assay type: cell-based, human; conditions: MDA-MB-231 cells, 25–50 µM, 24 h
Procedure: as §1, §2

## C=C1CC[C@H]2C(C)(C)CCC[C@]2(C)[C@H]1CC/C(C)=C/C(=O)NOC1CCCCO1 (stereo partly drawn) [Compound 4l, (E)-3-Methyl-N-((tetrahydro-2H-pyran-2-yl)oxy)-5-((1S,4aS,8aS)-5,5,8a-trimethyl-2-methylenedecahydronaphthalen-1-yl)pent-2-enamide]
[1]
  phosphorylation of ERK: not affected
[2]
  IC50: 26.2 ± 1.76 µM
  Selectivity Index (SI) values MOLT-3: 1.5
[3]
  IC50: 21.4 ± 0.31 µM
  Selectivity Index (SI) values HL-60: 1.9
[4]; 24–48 h
  necrosis (immediate formation of bubbles on cell surface): did not induce necrosis
[4]; until 48 h after treatment
  vacuole accumulation: not observed
[5]
  IC50: 40.3 ± 2.11 µM
[6]; 25–50 µM
  phosphorylation of FAK protein: selectively reduced
[7]
  phosphorylation of EGFR: not affected
[8]
  IC50: 57.7 ± 1.2 µM
  Selectivity Index (SI) values A549: 0.7
[9]
  IC50: 94.6 ± 1.67 µM
  Selectivity Index (SI) values H69AR: 0.4
[10]
  IC50: 13.73 ± 0.04 µM
  Selectivity Index (SI) values MDA-MB-231: 2.9
[11]
  IC50: 73.5 ± 2.15 µM
  Selectivity Index (SI) values HepG2: 0.5
[12]
  IC50: 26.44 ± 0.04 µM
  Selectivity Index (SI) values HeLa: 1.5
[13]
  IC50: 58.67 ± 0.13 µM
  Selectivity Index (SI) values HuCCA-1: 0.7
[14]
  IC50: 66.1 ± 6.39 µM
  Selectivity Index (SI) values T47-D: 0.6
[15]; MDA-MB-231, 25–50 µM, 48 h, control 5.8%, mean of three experiments (Fig. 3c)
  late apoptotic cell population: 19.0–26.3%
[15]
  mode of cell death: non-apoptotic regulated cell death
[16]
  phosphorylation of Akt: not affected

## C=C1CC[C@H]2C(C)(C)CCC[C@]2(C)[C@H]1CC/C(C)=C/C(=O)N(C)O [Compound 4p, (E)-N-Hydroxy-N,3-dimethyl-5-((1S,4aS,8aS)-5,5,8a-trimethyl-2-methylenedecahydronaphthalen-1-yl)pent-2-enamide]
[2]
  IC50: 3.72 ± 0.26 µM
  Selectivity Index (SI) values MOLT-3: 18.8
[3]
  IC50: 6.81 ± 1.99 µM
  Selectivity Index (SI) values HL-60: 10.2
[5]
  IC50: 69.8 ± 1.24 µM
[8]
  IC50: 61.4 ± 2.16 µM
  Selectivity Index (SI) values A549: 1.1
[9]
  IC50: 96.67 ± 0.08 µM
  Selectivity Index (SI) values H69AR: 0.7
[10]
  IC50: 24.5 ± 0.61 µM
  Selectivity Index (SI) values MDA-MB-231: 2.8
[11]
  IC50: 64.6 ± 0.76 µM
  Selectivity Index (SI) values HepG2: 1.1
[12]
  IC50: 33.6 ± 0.54 µM
  Selectivity Index (SI) values HeLa: 2.1
[13]
  IC50: 58.6 ± 1.2 µM
  Selectivity Index (SI) values HuCCA-1: 1.2
[14]
  IC50: 35.7 ± 1.01 µM
  Selectivity Index (SI) values T47-D: 2.0

## C=C1CC[C@H]2C(C)(C)CCC[C@]2(C)[C@H]1CC/C(C)=C/C(=O)NCC(=O)OC [Compound 4q, Methyl ((E)-3-methyl-5-((1S,4aS,8aS)-5,5,8a-trimethyl-2-methylenedeca-hydronaphthalen-1-yl)pent-2-enoyl)glycinate]
[2]
  IC50: 14.9 ± 0.32 µM
  Selectivity Index (SI) values MOLT-3: 4.4
[3]
  IC50: 26 ± 0.55 µM
  Selectivity Index (SI) values HL-60: 2.5
[5]
  IC50: 65.29 ± 0.11 µM
[8]
  IC50: 43.8 ± 3.08 µM
  Selectivity Index (SI) values A549: 1.5
[9]
  IC50: 61.4 ± 2.03 µM
  Selectivity Index (SI) values H69AR: 1.1
[10]
  IC50: 46.2 ± 1.89 µM
  Selectivity Index (SI) values MDA-MB-231: 1.4
[11]
  IC50: 73.89 ± 0.3 µM
  Selectivity Index (SI) values HepG2: 0.9
[12]
  IC50: 39.1 ± 0.78 µM
  Selectivity Index (SI) values HeLa: 1.7
[13]
  IC50: 81.1 ± 2.42 µM
  Selectivity Index (SI) values HuCCA-1: 0.8
[14]
  IC50: 71.3 ± 2.07 µM
  Selectivity Index (SI) values T47-D: 0.9

## C=C1CCC2C(C)(C)CCCC2(C)C1CCC(C)=CC(=O)NCC(=O)OCC [Compound 4r, Ethyl ((E)-3-methyl-5-((1S,4aS,8aS)-5,5,8a-trimethyl-2-methylenedec-ahydronaphthalen-1-yl)pent-2-enoyl)glycinate]
[2]
  IC50: 11.5 ± 1.13 µM
  Selectivity Index (SI) values MOLT-3: 5.6
[3]
  IC50: 23.9 ± 0.59 µM
  Selectivity Index (SI) values HL-60: 2.7
[5]
  IC50: 63.9 ± 0.65 µM
[8]
  IC50: 67.3 ± 2.09 µM
  Selectivity Index (SI) values A549: 0.9
[9]
  IC50: 45.9 ± 1.8 µM
  Selectivity Index (SI) values H69AR: 1.4
[10]
  IC50: 23.4 ± 0.81 µM
  Selectivity Index (SI) values MDA-MB-231: 2.7
[11]
  IC50: 61.3 ± 1.12 µM
  Selectivity Index (SI) values HepG2: 1.0
[12]
  IC50: 36.6 ± 1.44 µM
  Selectivity Index (SI) values HeLa: 1.7
[13]
  IC50: 72.3 ± 1.93 µM
  Selectivity Index (SI) values HuCCA-1: 0.9
[14]
  IC50: 87.2 ± 6.02 µM
  Selectivity Index (SI) values T47-D: 0.7

## Cl.Cl.Cl.Cl.Nc1cc(N)c(N)cc1N [FAKi, 1,2,4,5-benzenetetraamine tetrahydrochloride, reference compound]
[6]; 16 μM
  FAK phosphorylation: clearly inhibited
[15]
  mode of cell death: non-apoptotic cell death
